Experimental findings from patent US8124032B2, “Microfluidic device and method of using same” (priority 2004, dated 2012) are described below.

For this assay, the system named is single yeast cell (intracellular carboxylesterase, efflux process). Description: Single-cell FDA metabolism (influx/hydrolysis/efflux), curve fitting to enzymatic model. The format is cell-based, Sacchomyces cereviase. The text has this:
In one of the embodiments of the invention, to study a model of a yeast metabolic process using the microfluidic device of the invention, the inventors selected a cell-permeable fluorogenic substrate, fluorescein diacetate (FDA), which is normally used to determine cell viability^42. After influx of FDA into a yeast cell, the intracellular enzyme carboxylesterase^43 hydrolyzes FDA to fluorescein, which will then be excreted from the cell (through efflux).
To examine the cells in an embodiment of the microfluidic device, the device was placed on the translation stage of an inverted microscope and simultaneous optical observation and fluorescent measurement were carried out. To carry out fluorescent intensity calibration in the microfluidic device, polystyrene beads (6 μm diameter, InSpeck™ Green, Molecular Probes) were used. Three-dimensional liquid flow control was accomplished by either electric or fluid potential.
With electric potential control, only low-conducting liquids, such as G7, H4 could be delivered to the cells (cell 3, 4, 5). The two buffers were G7 (28.5 mM HEPES, 256 mM D-glucose, pH=7.3) and H4 (285 mM HEPES, pH=4.3). 12 μM FDA was used, where appropriate. With fluid potential (<1 mm) control, highly conducting liquids such as YPD, NaCl, KCl, EDTA could also be used.
FIG. 16I depicts the schematic diagram of a yeast cell with a daughter bud, showing the relationship between the concentrations of extracellular FDA (A), intracellular FDA (B) and fluorescein (C) as a function of time (t). The kinetic model can be described by several equations. Equation (1) is the material balance of FDA (B) in the cell. Equation (2) is the material balance of fluorescein (C) in the cell. Equations (1) and (2) were derived from first principles as discussed below.
[formula] The notations are A: extracellular FDA (μM); B: intracellular FDA (μM); C: intracellular fluorescein (μM); S: cell surface area (μm^2) and V: cell volume (μm^3), as calculated from the diameter (μm) of the cell (D1) and its bud (D2); kb: transport coefficient (μm s^−1); Vm (μM s^−1) and Km (μM): Michaelis-Menten kinetic parameters for the carboxylesterase; Ve (μM μm s^−1) and Ke (μM): Michaelis-Menten kinetic parameters for the efflux process.
[formula] Equation (3) represents the increasing rate of the carboxylesterase activity as indicated by the Michaelis-Menten parameter Vm, where k is the rate constant (μM s^−2). Derivation for Equation (1): Material Balance of FDA in the Cell
Here, T0, T1 and T2 are the time at which influx, hydrolysis and efflux start, respectively.
In the self-control mode, when influx is not allowed, kb=0. […] During hydrolysis (T1 to T2), there is no influx and efflux, i.e. kb=0, Vm>0, and Ve=0. Finally, during efflux (after T2), there is no influx and hydrolysis, i.e. kb=0, Vm=0, and Ve>0. In the lost-control mode, kb>0, Vm>0, and Ve>0. In the “death” mode, kb=0, Vm=0, and Ve=0. In this case, the cell appears dead when there is no change in the concentration of cellular fluorescein.
Curve-fitting experiments were also carried out for two other single yeast cells under various stimuli, see FIG. 17.

Where [1] appears, read: cell 3, T0 2140 s, self-control mode.
Where [2] appears, read: cell 4, T0 2560 s, self-control mode.
[3] abbreviates: cell 4, T0 4950 s, self-control mode.
Where [4] appears, read: cell 4, T0 6590 s, self-control mode.
Setting [5] is: cell 4, T0 8627 s, lost-control mode.
The mark [6] stands for this setting: cell 5, T0 208 s, self-control mode.
[7] abbreviates: cell 5, T0 1030 s, self-control mode.
The mark [8] stands for this setting: cell 5, T0 2026 s, self-control mode.
The mark [9] stands for this setting: cell 5, T0 3300 s, self-control mode.
Setting [10] is: cell 5, T0 5600 s, lost-control mode.
The mark [11] stands for this setting: cell ‡ (another single yeast cell similar to cell 3), T0 2200 s, self-control mode.

Take `CC(=O)Oc1ccc2c(c1)Oc1cc(OC(C)=O)ccc1C21OC(=O)c2ccccc21` [FDA, fluorescein diacetate]: the “Vm0 (initial value of Vm, carboxylesterase)” value reads like this: under setting [1], 0.0012 µM/s; under setting [2], 0.002 µM/s; under setting [3], 0.01 µM/s; under setting [4], 0.04 µM/s; under setting [5], 0.009 µM/s; under setting [6], 0.02 µM/s. The “Vm0 (initial value of Vm, carboxylesterase)” value is 0.005 µM/s under setting [7]; 0.0018 µM/s under setting [8]; 0.004 µM/s under setting [9]; 0.015 µM/s under setting [10]; 0.007 µM/s under setting [11]. The “k (rate constant of increase of Vm)” value reads like this: under setting [1], 4 10^−6 μM s^−2; under setting [2], 25 10^−6 μM s^−2; under setting [3], 25 10^−6 μM s^−2; under setting [4], 0 10^−6 μM s^−2; under setting [5], 0 10^−6 μM s^−2; under setting [6], 0 10^−6 μM s^−2. The “k (rate constant of increase of Vm)” value under setting [7] is on record as 0 10^−6 μM s^−2; the “k (rate constant of increase of Vm)” value under setting [8] is reported as 2 10^−6 μM s^−2; the “k (rate constant of increase of Vm)” value under setting [9] is 15 10^−6 μM s^−2; the “k (rate constant of increase of Vm)” value under setting [10] is 0 10^−6 μM s^−2; the “k (rate constant of increase of Vm)” value under setting [11] is 4 10^−6 μM s^−2.
